Reference: ChEMBL document CHEMBL4414605 (J Med Chem, 2019)

Experiments:
[1] = molecular target: T1, D(2) dopamine receptor (Homo sapiens, UniProt P14416)
Description: Displacement of PPHT-red from SNAP-tagged human D2LR expressed in CHOK1 cell membranes assessed as dissociation half-life by TR-FRET assay

[2] = molecular target: T1, D(2) dopamine receptor; remark: listed apart in the source
Description: Displacement of PPHT-red from SNAP-tagged human D2LR expressed in CHOK1 cell membranes assessed as association rate constant by TR-FRET assay

[3] = molecular target: T1, D(2) dopamine receptor; remark: listed apart in the source
Description: Displacement of PPHT-red from SNAP-tagged human D2LR expressed in CHOK1 cell membranes assessed as dissociation rate constant by TR-FRET assay

[4] = molecular target: T1, D(2) dopamine receptor; details: 10 min, read-out: INH
[5] = molecular target: T1, D(2) dopamine receptor; remark: listed apart in the source
Description: Binding affinity to SNAP-tagged human D2LR expressed in CHOK1 cell membranes assessed as association rate constant by TR-FRET assay

[6] = molecular target: T1, D(2) dopamine receptor; remark: listed apart in the source
Description: Binding affinity to SNAP-tagged human D2LR expressed in CHOK1 cell membranes assessed as dissociation rate constant by TR-FRET assay

T1 sequence (P14416 whole entry): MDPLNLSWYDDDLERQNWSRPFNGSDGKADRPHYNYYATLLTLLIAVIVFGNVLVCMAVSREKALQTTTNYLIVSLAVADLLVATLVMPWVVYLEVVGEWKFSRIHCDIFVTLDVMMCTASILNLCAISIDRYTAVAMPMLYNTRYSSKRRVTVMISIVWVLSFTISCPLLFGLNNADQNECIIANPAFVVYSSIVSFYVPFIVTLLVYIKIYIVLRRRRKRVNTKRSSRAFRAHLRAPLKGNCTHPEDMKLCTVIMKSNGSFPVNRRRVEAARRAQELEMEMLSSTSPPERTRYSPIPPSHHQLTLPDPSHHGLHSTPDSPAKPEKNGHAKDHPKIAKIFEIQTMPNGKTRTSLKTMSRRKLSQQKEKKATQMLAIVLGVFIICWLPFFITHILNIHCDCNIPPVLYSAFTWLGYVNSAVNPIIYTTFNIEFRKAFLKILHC

SMILES	T1/2 [1] [s]	Ka [2]	Kdiss [3] [s⁻¹]	inhibition at 10 µM [4] [%]	Ka [5] [×10⁶ /M/min]	Kdiss [6] [s⁻¹]
O=C(CCCN1CCC(O)(c2ccc(Cl)cc2Cl)CC1)c1ccc(F)cc1	69	2.87 ×10⁸ /M/min	0.0117			
O=C(CCCN1CCC(O)(c2ccc(Cl)cc2)CC1)c1ccc(Cl)cc1	60	1.38 ×10⁸ /M/min	0.0117			
O=C(CCCN1CCC(O)(c2ccc(Cl)c(Cl)c2)CC1)c1ccc(F)cc1	100	2.95 ×10⁹ /M/min	0.007			
OC1(c2ccc(Cl)cc2)CCN(CC[C@H]2C[C@H]2c2ccc(F)cc2)CC1 (racemic)	30.6	4.47 ×10⁷ /M/min	0.0228			
OC1(c2ccc(Cl)cc2)CCN(CCCC#Cc2ccc(F)cc2)CC1	39	6.41 ×10⁷ /M/min	0.0192			
O=C(CCCN1CCC(O)(c2ccc(Cl)cc2)CC1)c1ccccc1Cl	45.6	3.16 ×10⁸ /M/min	0.0185			
O=C(CCCN1CCC(c2ccccc2)CC1)c1ccc(F)cc1	59.4	8.99 ×10⁷ /M/min	0.0118	20		
O=C(CCCN1CCC(O)(c2cc(Cl)cc(Cl)c2)CC1)c1ccc(F)cc1	116	6.58 ×10⁸ /M/min	0.00717			
OC1(c2ccc(Cl)cc2)CCN(CCC#Cc2ccc(F)cc2)CC1	41.4	1.61 ×10⁷ /M/min	0.0183			
O=C(CCCN1CCC(O)(c2cccc(Cl)c2)CC1)c1ccc(F)cc1	71.4	6.32 ×10⁸ /M/min	0.0107			
O=C(CCCN1CCC(O)(c2ccc(Cl)cc2)CC1)c1cccc(F)c1	42 to 45.6	2.55 to 2.64 ×10⁷ /M/min	0.016 to 0.018			
O=C(CCCN1CCC2(c3ccc(Cl)cc3)CC2C1)c1ccc(F)cc1 (stereo unspecified)	141	2.03 ×10⁹ /M/min	0.005			
O=C(CCCN1CCC(O)(c2ccc(Cl)cc2)CC1)c1ccccc1	40.2	6.33 ×10⁸ /M/min	0.0187			
O=C(CCCN1CC=C(c2ccc(Cl)cc2)CC1)c1ccc(F)cc1	65.4	6.52 ×10⁷ /M/min	0.0108			
O=C(CCCN1CCC(O)(c2ccc(F)cc2)CC1)c1ccc(Cl)cc1	54.6	4.17 ×10⁷ /M/min	0.0128			
CCCN(CCc1ccccc1)C1CCc2c(O)cccc2C1 (racemic)					9.21	0.00583
O=C(CCCN1CCC(O)(c2ccccc2)CC1)c1ccccc1	58.8	2.28 ×10⁷ /M/min	0.0118			
OC1(c2ccc(Cl)cc2)CCN(CCCCc2ccc(F)cc2)CC1	37.8	1.57 ×10⁸ /M/min	0.0185			
O=C(CCCN1CCC(O)(c2ccccc2)CC1)c1ccc(F)cc1	42.6	1.22 ×10⁸ /M/min	0.017			
OC1(c2ccc(Cl)cc2)CCN(CC/C=C\c2ccc(F)cc2)CC1	34.8	3.35 ×10⁷ /M/min	0.0208			
COC1(c2ccc(Cl)cc2)CCN(CCCC(=O)c2ccc(F)cc2)CC1	61.8	3.6 ×10⁸ /M/min	0.0113			
O=C(CCCN1CCC(O)(c2cccc(Cl)c2Cl)CC1)c1ccc(F)cc1	137	2.2 ×10⁹ /M/min	0.005			
O=C(CCCN1CCC(O)(c2ccc(Cl)cc2)CC1)c1cc(F)cc(F)c1	47.4	4.25 ×10⁶ /M/min	0.0153			
O=C(CCCN1CCN(c2ccc(Cl)cc2)CC1)c1ccc(F)cc1	53.4	2.86 ×10⁷ /M/min	0.0133			
O=C(CCCN1[C@@H]2CC[C@H]1CC(O)(c1ccc(Cl)cc1)C2)c1ccc(F)cc1 (stereo partly specified)	215	3.68 ×10⁹ /M/min	0.00317			
O=C(CCCN1CCC(c2ccc(Cl)cc2)CC1)c1ccc(F)cc1	51.6	4.31 ×10⁸ /M/min	0.014			

SMILES	T1/2 [1] [s]	Ka [2]	Kdiss [3] [s⁻¹]	inhibition at 10 µM [4] [%]	Ka [5] [×10⁶ /M/min]	Kdiss [6] [s⁻¹]
OC1(c2ccc(Cl)cc2)CCN(CC#Cc2ccc(F)cc2)CC1	46.2	3.37 ×10⁶ /M/min	0.016			
O=C(CCCN1CCC(O)(c2ccc(Cl)cc2)CC1)c1cc(F)ccc1F	34.8 to 37.8	1.13 to 1.15 ×10⁷ /M/min	0.019 to 0.0248			
O=C(CCCN1CCC(O)(c2ccccc2-c2ccccc2Cl)CC1)c1ccc(F)cc1	53.4	3.25 ×10⁸ /M/min	0.0137			
O=C(CCCN1CCC(O)(c2ccccc2Cl)CC1)c1ccc(F)cc1	36.6	3.54 ×10⁸ /M/min	0.0193			
Cc1ccccc1C(=O)CCCN1CCC(O)(c2ccc(Cl)cc2)CC1	60.6	3.66 ×10⁸ /M/min	0.0138			
O=C(CCCN1CCC(O)(c2ccc(Cl)cc2)CC1)c1ccccc1F	41.4		0.0173			
O=C(CCCN1CCC(O)(c2ccc(F)cc2)CC1)c1ccc(F)cc1	55.2	2.61 ×10⁸ /M/min	0.013			
O=C(CCCCN1CCC(O)(c2ccc(Cl)cc2)CC1)c1ccc(F)cc1	18 to 28.8	1.42 to 1.8 ×10⁸ /M/min	0.0275 to 0.0392			
O=C(CCCN1CCC(O)(c2c(Cl)cccc2Cl)CC1)c1ccc(F)cc1	40.2	5.07 ×10⁸ /M/min	0.0175			
OC1(c2ccc(Cl)cc2)CCN(CC[C@H]2C[C@@H]2c2ccc(F)cc2)CC1 (racemic)	49.2	6.07 ×10⁸ /M/min	0.0153			
O=C(CCCN1CCC(O)(c2ccc(C(F)(F)F)cc2)CC1)c1ccc(F)cc1	67.2	1.36 ×10⁹ /M/min	0.0103			
OC1(c2ccc(Cl)cc2)CCN(CCCOc2ccc(F)cc2)CC1	48.6	1.22 ×10⁹ /M/min	0.0152			
O=C(CCCN1CCC(O)(c2ccc(Cl)cc2)CC1)c1ccc(F)cc1F	30.6	1.07 ×10⁷ /M/min	0.0227			
O=C(CCCN1CCC(O)(c2ccc(Cl)cc2)CC1)c1c(F)cccc1F	39.6	1.84 ×10⁷ /M/min	0.0182			
OC1(c2ccc(Cl)cc2)CCN(CCCCCc2ccc(F)cc2)CC1	36	5.51 ×10⁷ /M/min	0.0203			
OC(CCCN1CCC(O)(c2ccc(Cl)cc2)CC1)c1ccc(F)cc1 (stereo unspecified)	75	6.19 ×10⁶ /M/min	0.0095			
OC1(c2ccc(Cl)cc2)CCN(CC/C=C/c2ccc(F)cc2)CC1	44.4	6.39 ×10⁷ /M/min	0.0127			
OC1(c2ccc(Cl)cc2)CCN(CCCc2ccc(F)cc2)CC1	27.6 to 34.2	2.29 to 2.45 ×10⁷ /M/min	0.0222 to 0.0257			
O=C(CCCN1CCC(O)(c2cc(Cl)ccc2Cl)CC1)c1ccc(F)cc1	76.2	5.29 ×10⁸ /M/min	0.00933			
O=C(CCN1CCC(O)(c2ccc(Cl)cc2)CC1)c1ccc(F)cc1	25.8 to 34.2	1.03 to 1.33 ×10⁷ /M/min	0.0212 to 0.0325			
Cc1ccc(C2(O)CCN(CCCC(=O)c3ccc(F)cc3)CC2)cc1	43.8	1 ×10⁹ /M/min	0.0163			
CN(C)c1ccc(C2(O)CCN(CCCC(=O)c3ccc(F)cc3)CC2)cc1	33.6	1.64 ×10⁸ /M/min	0.0208			
O=C(CCCN1CCC(O)(c2ccc(Cl)cc2)CC1)c1ccc(F)c(F)c1	45		0.0172			
O=C(CCCN1CCC(O)(c2ccc(Cl)cc2)CC1)c1cccc(F)c1F	24.6 to 36	3.01 to 3.24 ×10⁷ /M/min	0.0215 to 0.0283			
OC1(c2ccc(Cl)cc2)CCN(CCCSc2ccc(F)cc2)CC1	44.4	4.99 ×10⁸ /M/min	0.0165			
